Test results taken from the supplement of paper PMC10307832.

Legend:
Assay in all cases: relative viability (nuclei count vs DMSO), 5 days (fraction); higher = more cells survive
[1] = tested on: NCI-H1651
Method in brief: (§1)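 Medians of duplicate plates are given as relative viability. That measure is the nuclei count in treated wells divided by the count in vehicle wells. Counts were taken on 4× images of lung cancer cell lines in 1536-well plates, 5 days after pin-tool dosing the day after seeding with one drug alone or a fixed anchor-drug dose plus five library-drug doses (not always all listed) in √10 steps.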

[2] = tested on: NCI-H838
Method in brief: as §1

[3] = tested on: NCI-H661
Method in brief: as §1

[4] = tested on: NCI-H1944
Method in brief: as §1

[5] = tested on: NCI-H358
Method in brief: as §1

[6] = tested on: NCI-H2087
Method in brief: as §1

[7] = tested on: PC-3 [JPC-3]
Method in brief: as §1

[8] = tested on: NCI-H2342
Method in brief: as §1

[9] = tested on: NCI-H596
Method in brief: as §1

[10] = tested on: LU99A
Method in brief: as §1

[11] = tested on: NCI-H1666
Method in brief: as §1

[12] = tested on: BEN
Method in brief: as §1

[13] = tested on: NCI-H650
Method in brief: as §1

[14] = tested on: LK-2
Method in brief: as §1

[15] = tested on: LCLC-97TM1
Method in brief: as §1

[16] = tested on: HCC-78
Method in brief: as §1

[17] = tested on: SK-MES-1
Method in brief: as §1

[18] = tested on: NCI-H1355
Method in brief: as §1

[19] = tested on: LC-2-ad
Method in brief: as §1

[20] = tested on: ChaGo-K-1
Method in brief: as §1

[21] = tested on: NCI-H1975
Method in brief: as §1

[22] = tested on: LXF-289
Method in brief: as §1

`O=c1cc(N2CCOCC2)oc2c(-c3cccc4c3sc3ccccc34)cccc12` + CC(=O)Nc1cccc(-n2c(=O)n(C3CC3)c(=O)c3c(Nc4ccc(I)cc4F)n(C)c(=O)c(C)c32)c1 [Trametinib] (partner 0.02 µM) showed a relative viability ([1]; first compound 0.01 µM) of 0.816, a relative viability ([1]; first compound 0.03162 µM) of 0.818 and a relative viability ([1]; first compound 0.1 µM) of 0.817. The relative viability ([1]; first compound 0.3162 µM) was 0.819, the relative viability ([1]; first compound 1 µM) was 0.871 and the relative viability ([2]; first compound 0.01 µM) was 0.594. It also gave a relative viability ([2]; first compound 0.03162 µM) of 0.557, a relative viability ([2]; first compound 0.1 µM) of 0.481 and a relative viability ([2]; first compound 0.3162 µM) of 0.469. It also gave a relative viability ([2]; first compound 1 µM) of 0.442, a relative viability ([3]; first compound 0.01 µM) of 0.541 and a relative viability ([3]; first compound 0.03162 µM) of 0.587. It also gave a relative viability ([3]; first compound 0.1 µM) of 0.674, a relative viability ([3]; first compound 0.3162 µM) of 0.581 and a relative viability ([3]; first compound 1 µM) of 0.603. The relative viability ([4]; first compound 0.01 µM) was 0.448, the relative viability ([4]; first compound 0.03162 µM) was 0.403 and the relative viability ([4]; first compound 0.1 µM) was 0.396. It also gave a relative viability ([4]; first compound 0.3162 µM) of 0.411, a relative viability ([4]; first compound 1 µM) of 0.363 and a relative viability ([5]; first compound 0.01 µM) of 0.133. For the same compound, the relative viability ([5]; first compound 0.03162 µM) was 0.14, the relative viability ([5]; first compound 0.1 µM) was 0.115 and the relative viability ([5]; first compound 0.3162 µM) was 0.128. It also gave a relative viability ([5]; first compound 1 µM) of 0.165, a relative viability ([6]; first compound 0.01 µM) of 0.225 and a relative viability ([6]; first compound 0.03162 µM) of 0.195. For the same compound, the relative viability ([6]; first compound 0.1 µM) was 0.231, the relative viability ([6]; first compound 0.3162 µM) was 0.188 and the relative viability ([6]; first compound 1 µM) was 0.214. The relative viability ([7]; first compound 0.01 µM) was 0.623, the relative viability ([7]; first compound 0.03162 µM) was 0.675 and the relative viability ([7]; first compound 0.1 µM) was 0.649. It also gave a relative viability ([7]; first compound 0.3162 µM) of 0.729, a relative viability ([7]; first compound 1 µM) of 0.655 and a relative viability ([8]; first compound 0.01 µM) of 0.728. It also gave a relative viability ([8]; first compound 0.03162 µM) of 0.874, a relative viability ([8]; first compound 0.1 µM) of 0.928 and a relative viability ([8]; first compound 0.3162 µM) of 0.962. The relative viability ([8]; first compound 1 µM) was 0.833, the relative viability ([9]; first compound 0.01 µM) was 0.758 and the relative viability ([9]; first compound 0.03162 µM) was 0.866. For the same compound, the relative viability ([9]; first compound 0.1 µM) was 0.831, the relative viability ([9]; first compound 0.3162 µM) was 0.711 and the relative viability ([9]; first compound 1 µM) was 0.717. For the same compound, the relative viability ([10]; first compound 0.01 µM) was 0.561, the relative viability ([10]; first compound 0.03162 µM) was 0.576 and the relative viability ([10]; first compound 0.1 µM) was 0.562. The relative viability ([10]; first compound 0.3162 µM) was 0.501, the relative viability ([10]; first compound 1 µM) was 0.541 and the relative viability ([11]; first compound 0.01 µM) was 0.882. The relative viability ([11]; first compound 0.03162 µM) was 0.829, the relative viability ([11]; first compound 0.1 µM) was 0.84 and the relative viability ([11]; first compound 0.3162 µM) was 0.814. It also gave a relative viability ([11]; first compound 1 µM) of 0.849, a relative viability ([12]; first compound 0.01 µM) of 1.06 and a relative viability ([12]; first compound 0.03162 µM) of 1.07. The relative viability ([12]; first compound 0.1 µM) was 1.06, the relative viability ([12]; first compound 0.3162 µM) was 1.01 and the relative viability ([12]; first compound 1 µM) was 0.943. The relative viability ([13]; first compound 0.01 µM) was 1.05, the relative viability ([13]; first compound 0.03162 µM) was 1.1 and the relative viability ([13]; first compound 0.3162 µM) was 0.939. The relative viability ([13]; first compound 1 µM) was 1.04, the relative viability ([14]; first compound 0.01 µM) was 0.808 and the relative viability ([14]; first compound 0.03162 µM) was 0.807. For the same compound, the relative viability ([14]; first compound 0.1 µM) was 0.957, the relative viability ([14]; first compound 0.3162 µM) was 0.515 and the relative viability ([14]; first compound 1 µM) was 0.902. The relative viability ([15]; first compound 0.01 µM) was 0.197, the relative viability ([15]; first compound 0.03162 µM) was 0.161 and the relative viability ([15]; first compound 0.1 µM) was 0.173. The relative viability ([15]; first compound 0.3162 µM) was 0.173, the relative viability ([15]; first compound 1 µM) was 0.193 and the relative viability ([16]; first compound 0.01 µM) was 0.801. It also gave a relative viability ([16]; first compound 0.03162 µM) of 0.699, a relative viability ([16]; first compound 0.1 µM) of 0.899 and a relative viability ([16]; first compound 0.3162 µM) of 0.806. The relative viability ([16]; first compound 1 µM) was 0.651, the relative viability ([17]; first compound 0.01 µM) was 0.546 and the relative viability ([17]; first compound 0.03162 µM) was 0.533. For the same compound, the relative viability ([17]; first compound 0.1 µM) was 0.518, the relative viability ([17]; first compound 0.3162 µM) was 0.516 and the relative viability ([17]; first compound 1 µM) was 0.48. The relative viability ([18]; first compound 0.01 µM) was 0.435, the relative viability ([18]; first compound 0.03162 µM) was 0.435 and the relative viability ([18]; first compound 0.1 µM) was 0.435. It also gave a relative viability ([18]; first compound 0.3162 µM) of 0.409, a relative viability ([18]; first compound 1 µM) of 0.399 and a relative viability ([19]; first compound 0.01 µM) of 0.982. The relative viability ([19]; first compound 0.03162 µM) was 0.877, the relative viability ([19]; first compound 0.1 µM) was 0.965 and the relative viability ([19]; first compound 0.3162 µM) was 0.899. The relative viability ([19]; first compound 1 µM) was 0.918, the relative viability ([20]; first compound 0.01 µM) was 0.845 and the relative viability ([20]; first compound 0.03162 µM) was 0.958. For the same compound, the relative viability ([20]; first compound 0.1 µM) was 0.966, the relative viability ([20]; first compound 0.3162 µM) was 0.893 and the relative viability ([20]; first compound 1 µM) was 0.882. For the same compound, the relative viability ([21]; first compound 0.01 µM) was 0.434, the relative viability ([21]; first compound 0.03162 µM) was 0.337 and the relative viability ([21]; first compound 0.1 µM) was 0.401. The relative viability ([21]; first compound 0.3162 µM) was 0.361, the relative viability ([21]; first compound 1 µM) was 0.293 and the relative viability ([22]; first compound 0.01 µM) was 0.672. For the same compound, the relative viability ([22]; first compound 0.03162 µM) was 0.629, the relative viability ([22]; first compound 0.1 µM) was 0.662 and the relative viability ([22]; first compound 0.3162 µM) was 0.673. For the same compound, the relative viability ([22]; first compound 1 µM) was 0.695.
